Laboratory results published in patent publication US11089783B2, “2-(het)aryl-substituted fused heterocycle derivatives as pesticides” (Bayer Aktiengesellschaft, priority 2017, dated 2021).

Experiments:
Format in all cases: in vivo
Myzus persicae [1] = experiment: Myzus persicae oral test; settings: 120 h, after 5 days, read-out: efficacy
Experimental: [table] To produce a suitable active ingredient formulation, 1 part by weight of active ingredient is dissolved with the stated parts by weight of solvent and made up to the desired concentration with water. 50 μl of the active ingredient preparation are transferred into microtitre plates and made up to a final volume of 200 μl with 150 μl of IPL41 insect medium (33%+15% sugar). Subsequently, the plates are sealed with parafilm, which a mixed population of green peach aphids (Myzus persicae) within a second microtitre plate is able to puncture and imbibe the solution. After 5 days, the efficacy in % is determined. 100% means that all the aphids have been killed; 0% means that no aphids have been killed.

Myzus persicae [2] = experiment: Myzus persicae spray test (MYZUPE), Chinese cabbage leaf discs; settings: Myzus persicae, foliar, 120 h
Experimental: (§1) [table] To produce a suitable active ingredient formulation, 1 part by weight of active ingredient is dissolved with the specified parts by weight of solvent and made up to the desired concentration with water containing an emulsifier concentration of 1000 ppm. To produce further test concentrations, the formulation is diluted with emulsifier-containing water. Discs of Chinese cabbage leaves (Brassica pekinensis) infested by all stages of the green peach aphid (Myzus persicae) are sprayed with an active ingredient formulation of the desired concentration. After 5 days, the efficacy in % is determined. 100% means that all the aphids have been killed; 0% means that no aphids have been killed. [table] To produce an appropriate active ingredient formulation, 1 part by weight of active ingredient is dissolved with the stated parts by weight of solvent and made up with water containing an emulsifier concentration of 1000 ppm until the desired concentration is attained. For production of further test concentrations, the mixture is diluted with emulsifier-containing water. Discs of chinese cabbage leaves (Brassica pekinensis) infested by all stages of the green peach aphid (Myzus persicae) are sprayed with an active ingredient formulation of the desired concentration. After the desired time, the efficacy in % is determined. 100% means that all aphids have been killed; 0% means that no aphids have been killed.

Musca domestica = Musca domestica test; settings: 100 ppm, adult houseflies, after 2 days
Experimental: Solvent: dimethyl sulfoxide To produce a suitable active ingredient formulation, 10 mg of active ingredient are mixed with 0.5 ml of dimethyl sulfoxide, and the concentrate is diluted with water to the desired concentration. Vessels containing a sponge treated with sugar solution and the active ingredient formulation of the desired concentration are populated with 10 adult houseflies (Musca domestica). After 2 days, the kill in % is determined. 100% means that all of the flies have been killed; 0% means that none of the flies have been killed.

Lucilia cuprina = Lucilia cuprina test; settings: 48 h, L1 larvae, after 2 days, read-out: efficacy (kill)
Experimental: Solvent: dimethyl sulfoxide To produce a suitable active ingredient formulation, 10 mg of active ingredient are mixed with 0.5 ml of dimethyl sulfoxide, and the concentrate is diluted with water to the desired concentration. About 20 L1 larvae of the Australian sheep blowfly (Lucilia cuprina) are transferred into a test vessel containing minced horsemeat and the active ingredient formulation of the desired concentration. After 2 days, the kill in % is determined. 100% means that all the larvae have been killed; 0% means that no larvae have been killed.

Phaedon cochleariae = Phaedon cochleariae spray test (PHAECO), Chinese cabbage leaf discs; settings: Phaedon cochleariae, foliar, 168 h; for pest or weed control at 100 g/ha: 7 days (7 dat), read-out: efficacy
Experimental: as §1, with “pekinensis)” for “pekinensis) infested by all stages of the green peach aphid (Myzus persicae)”, “concentration and, after drying, populated with larvae of the mustard beetle (Phaedon cochleariae).” for “concentration.”, “7” for “5”, “beetle larvae” for “aphids”

Myzus persicae [3] = experiment: Myzus persicae drench test (MYZUPE D), savoy cabbage plants; settings: soil, 240 h, 10 dat, read-out: % efficacy
Experimental: [table] To produce an appropriate active ingredient formulation, 1 part by weight of active ingredient is mixed with the specified amounts of solvent and emulsifier and the concentrate is diluted to the desired concentration with water, it being necessary to take into account the volume of soil into which drenching is effected. It should be ensured that a concentration of 40 ppm of emulsifier in the soil is not exceeded. For production of further test concentrations, the mixture is diluted with water. Savoy cabbage plants (Brassica oleracea) in soil pots, infested by all stages of the green peach aphid (Myzus persicae), are drenched with an active ingredient formulation of the desired concentration. After the desired time, the efficacy in % is determined. 100% means that all the aphids have been killed; 0% means that no aphids have been killed.

Nezara viridula = Nezara viridula spray test (NEZARA / NEZAVI); settings: Nezara viridula, 96 h, 4 dat, read-out: % efficacy
Experimental: (§2) [table] To produce an appropriate active ingredient formulation, 1 part by weight of active ingredient is dissolved with the specified parts by weight of solvent and made up with water containing an emulsifier concentration of 1000 ppm until the desired concentration is attained. To produce further test concentrations, the mixture is diluted with emulsifier-containing water. If addition of ammonium salts or/and penetrants is required, these are each added to the preparation solution in a concentration of 1000 ppm. Barley plants (Hordeum vulgare) infected with larvae of the southern green shield bug (Nezara viridula) are sprayed with an active ingredient formulation of the desired concentration. After the desired time, the efficacy in % is determined. 100% means that all bugs have been killed; 0% means that no bugs have been killed.

Aphis gossypii = Aphis gossypii spray test (APHIGO), cotton plants; settings: Aphis gossypii, 144 h, 20 ppm, 6 dat, read-out: % efficacy
Experimental: as §2, with “Cotton” for “Barley”, “(Gossypium hirsutum) severely infested by” for “(Hordeum vulgare) infected with larvae of”, “cotton aphid (Aphis gossypii)” for “southern green shield bug (Nezara viridula)”, “kill” for “efficacy”, “aphids” for “bugs”

Ctenocephalides felis [4] = experiment: Ctenocephalides felis in vitro contact test with adult cat fleas; settings: 5 μg/cm^2 (=500 g/ha), after 48 h
Experimental: For the coating of the test tubes, 9 mg of active ingredient are first dissolved in 1 ml of acetone p.a. and then diluted to the desired concentration with acetone p.a. 250 μl of the solution are distributed homogeneously on the inner walls and the base of a 25 ml glass tube by turning and rocking on an orbital shaker (rocking rotation at 30 rpm for 2 h). With 900 ppm of active ingredient solution and internal surface area 44.7 cm^2, given homogeneous distribution, an area-based dose of 5 μg/cm^2 is achieved. After the solvent has evaporated off, the tubes are populated with 5-10 adult cat fleas (Ctenocephalides felis), sealed with a perforated plastic lid and incubated in a horizontal position at room temperature and ambient humidity. After 48 h, efficacy is determined. To this end, the tubes are stood upright and the fleas are knocked to the base of the tube. Fleas which remain motionless at the base or move in an uncoordinated manner are considered to be dead or moribund. […] 100% efficacy means that all the fleas were dead or moribund. 0% efficacy means that no fleas were harmed.

Ctenocephalides felis [5] = experiment: Ctenocephalides felis oral test; settings: 100 ppm, after 2 days
Experimental: Solvent: dimethyl sulfoxide To produce a suitable active ingredient formulation, 10 mg of active ingredient are mixed with 0.5 ml of dimethyl sulfoxide. Dilution with citrated cattle blood gives the desired concentration. About 20 unfed adult cat fleas (Ctenocephalides felis) are placed into a chamber which is closed at the top and bottom with gauze. A metal cylinder whose bottom end is closed with parafilm is placed onto the chamber. The cylinder contains the blood/active ingredient formulation, which can be imbibed by the fleas through the parafilm membrane. After 2 days, the kill in % is determined. 100% means that all of the fleas have been killed; 0% means that none of the fleas have been killed.

Meloidogyne incognita = Meloidogyne incognita test (MELGIN); settings: Meloidogyne incognita, 336 h, 14 days (14 dat), read-out: efficacy (nematicidal, gall formation)
Experimental: [table] To produce a suitable active ingredient formulation, 1 part by weight of active ingredient is mixed with the stated amount of solvent and the concentrate is diluted to the desired concentration with water. Vessels are filled with sand, active ingredient solution, an egg/larvae suspension of the southern root-knot nematode (Meloidogyne incognita) and lettuce seeds. The lettuce seeds germinate and the plants develop. The galls develop on the roots. After 14 days, the nematicidal efficacy in % is determined by the formation of galls. 100% means that no galls were found; 0% means that the number of galls on the treated plants corresponds to the untreated control. [table] To produce an appropriate active ingredient formulation, 1 part by weight of active ingredient is mixed with the specified amount of solvent and the concentrate is diluted to the desired concentration with water. Vessels are filled with sand, active ingredient solution, an egg/larvae suspension of the southern root-knot nematode (Meloidogyne incognita) and lettuce seeds. The lettuce seeds germinate and the plants develop. The root-knots develop on the roots. After the desired time, the nematicidal effect is determined from the formation of root-knots in %. 100% means that no root-knots were found; 0% means that the number of root-knots on the treated plants corresponds to that on the untreated control.

Myzus persicae [6] = experiment: Myzus persicae spray test (MYZUPE S), bell pepper plants; settings: 144 h, 6 dat, read-out: % efficacy
Experimental: [table] To produce an appropriate active ingredient formulation, 1 part by weight of active ingredient is dissolved with the specified parts by weight of solvent and made up with water containing an emulsifier concentration of 1000 ppm until the desired concentration is attained. To produce further test concentrations, the mixture is diluted with emulsifier-containing water. If addition of ammonium salts or/and penetrants is required, these are each added to the preparation solution in a concentration of 1000 ppm. Bell pepper plants (Capsicum annuum) severely infested by the green peach aphid (Myzus persicae) are treated by spraying with the active ingredient formulation in the desired concentration. After the desired time, the kill in % is determined. 100% means that all the animals have been killed; 0% means that no animals have been killed.

Tetranychus urticae = Tetranychus urticae spray test, OP-resistant (TETRUR); settings: Tetranychus urticae, 144 h; TETRUR, 100 g/ha, 6 dat; read-out: % efficacy
Experimental: [table] To produce a suitable active ingredient formulation, 1 part by weight of active ingredient is dissolved with the specified parts by weight of solvent and made up to the desired concentration with water containing an emulsifier concentration of 1000 ppm. To produce further test concentrations, the formulation is diluted with emulsifier-containing water. Discs of bean leaves (Phaseolus vulgaris) infested with all stages of the greenhouse red spider mite (Tetranychus urticae) are sprayed with an active ingredient formulation of the desired concentration. After 6 days, the efficacy in % is determined. 100% means that all the spider mites have been killed; 0% means that no spider mites have been killed.

[7] = 5 days (5 dat), read-out: efficacy

| Compound | pest or weed control at 0.8 ppm (Myzus persicae [1]) [%] | pest or weed control at 100 g/ha (Myzus persicae [2]; [7]) [%] | pest or weed control at 100 ppm (Lucilia cuprina) [%] | pest or weed control at 100 g/ha (Phaedon cochleariae) [%] | efficacy (Ctenocephalides felis [4]) [%] | efficacy (kill) (Ctenocephalides felis [5]) [%] | percent efficacy (larval mortality) at a fixed application rate at 20 g/ha (Phaedon cochleariae; PHAECO, 20 g/ha, 7 dat) [%] | other results |
| --- | --- | --- | --- | --- | --- | --- | --- | --- |
| CCNC(=O)c1ccc(S(=O)(=O)CC)c(-c2nc3cc(C(F)(F)C(F)(F)F)nnc3n2C)n1 [Example I-04, N-ethyl-5-(ethylsulfonyl)-6-[7-methyl-3-(pentafluoroethyl)-7H-imidazo[4,5-c]pyridazin-6-yl]pyridine-2-carboxamide] | 100 | 100 | 100 | 100 | – | – | – | efficacy (kill) (Musca domestica): 80% |
| CNC(=O)Nc1ccc(S(C)(=O)=O)c(-c2nc3cc(C(F)(F)C(F)(F)F)nnc3n2C)n1 [Example I-11] | 100 | – | 100 | 100 | 100 | 100 | – | Emax at 0.8 ppm (Myzus persicae [3]; 0.8 ppm): 95%; Emax at 4 ppm (Myzus persicae [3]; 4 ppm): 98%; Emax at 20 g/ha (Nezara viridula; 20 g/ha): 100%; Emax at 20 ppm (Aphis gossypii): 95%; Emax at 20 g/ha (Phaedon cochleariae; PHAECO, 20 g/ha, 7 dat, read-out: % efficacy): 83% |
| CN(C)C(=O)Nc1ccc(S(C)(=O)=O)c(-c2nc3cc(C(F)(F)C(F)(F)F)nnc3n2C)n1 [Example I-12] | 100 | 90 | 100 | 100 | 100 | 100 | 100 | pest or weed control at 20 g/ha (Myzus persicae [2]; 20 g/ha, 5 days (5 dat), read-out: efficacy): 90%; pest or weed control at 20 ppm (Meloidogyne incognita): 100% |
| CCS(=O)(=O)c1ccc(N(C)C(=O)NC)nc1-c1nc2cc(C(F)(F)F)nnc2n1C [reference compound] | – | – | – | – | – | – | 33 | Emax at 4 g/ha (Myzus persicae [2]; MYZUPE, 4 g/ha, 5 dat, read-out: % efficacy): 0%; Emax at 0.16 ppm (Myzus persicae [3]; 0.16 ppm): 0%; Emax at 4 g/ha (Nezara viridula; 4 g/ha): 0%; Emax at 0.16 ppm (Myzus persicae [6]; 0.16 ppm): 20%; Emax at 0.8 ppm (Myzus persicae [6]; 0.8 ppm): 65%; Emax at 4 g/ha (Phaedon cochleariae; PHAECO, 4 g/ha, 7 dat, read-out: % efficacy): 0%; Emax at 100 g/ha (Tetranychus urticae): 0% |
